The NIST ThermoML archive (doi:10.1016/j.jct.2005.08.009)

Experiment: xn = mol fraction of the nth substance listed
Conditions: 101 kPa, Liquid

CC#N [acetonitrile] + O
Conditions | mass density, 298.15 K [kg/m3] | mass density, 303.15 K [kg/m3] | mass density, 308.15 K [kg/m3] | mass density, 313.15 K [kg/m3] | mass density, 318.15 K [kg/m3] | viscosity, 298.15 K [mPa·s] | viscosity, 303.15 K [mPa·s] | viscosity, 308.15 K [mPa·s] | viscosity, 313.15 K [mPa·s] | viscosity, 318.15 K [mPa·s]
x1 = 0.051 | 978.98 | 975.65 | 972.14 | 969.11 | 965.89 | 0.9849 | 0.8799 | 0.7964 | 0.7208 | 0.6522
x1 = 0.1169 | 954.73 | 951.24 | 947.08 | 943.32 | 939.05 | 0.9567 | 0.8628 | 0.7842 | 0.7155 | 0.6524
x1 = 0.1971 | 924.74 | 921.1 | 916.51 | 912.69 | 908.03 | 0.8743 | 0.7931 | 0.7218 | 0.6628 | 0.6069
x1 = 0.2728 | 900.14 | 896.29 | 891.33 | 887.31 | 882.39 | 0.7891 | 0.7152 | 0.6502 | 0.5951 | 0.5462
x1 = 0.3601 | 876.35 | 872.19 | 866.86 | 862.67 | 857.41 | 0.6953 | 0.6298 | 0.5737 | 0.5266 | 0.4853
x1 = 0.4417 | 857.17 | 852.79 | 846.98 | 842.61 | 837.06 | 0.6061 | 0.5574 | 0.5121 | 0.4744 | 0.4435
x1 = 0.5204 | 841.27 | 836.65 | 830.76 | 826.18 | 820.41 | 0.5387 | 0.4972 | 0.4606 | 0.4317 | 0.4089
x1 = 0.6012 | 826.9 | 822.15 | 816.07 | 811.38 | 805.44 | 0.4802 | 0.4473 | 0.4189 | 0.3959 | 0.3783
x1 = 0.6671 | 816.3 | 811.49 | 805.22 | 800.45 | 794.36 | 0.4415 | 0.4138 | 0.3902 | 0.3698 | 0.3556
x1 = 0.7398 | 805.64 | 800.78 | 794.39 | 789.71 | 783.69 | 0.4064 | 0.3831 | 0.3633 | 0.3471 | 0.3353
x1 = 0.8253 | 794.81 | 789.89 | 783.52 | 778.81 | 772.68 | 0.3722 | 0.3545 | 0.3386 | 0.3256 | 0.3159
x1 = 0.886 | 787.78 | 782.84 | 776.44 | 771.75 | 765.67 | 0.3561 | 0.3405 | 0.3259 | 0.3142 | 0.3039
x1 = 0.9389 | 782.44 | 777.52 | 771.07 | 766.36 | 760.29 | 0.3478 | 0.333 | 0.3173 | 0.3061 | 0.2963
x1 = 0.999 | – | – | – | – | – | 0.3418 | 0.3281 | 0.313 | 0.301 | 0.29
x1 = 1 | 776.69 | 771.89 | 765.46 | 760.86 | 754.76 | 0.3417 | 0.328 | 0.3129 | 0.3009 | 0.2899
